Source: PubChem BioAssay AID1963867 (Molecular Pharmacology Branch, DTP, NCI, 2024)
“And” between values parts separate entries of the source, which are not always exact repeats. Equal values may be shown once.

Test system: KRAS-mutant PDC tumor spheroid with HUVEC/MSC, viability
Experiment: Anticancer human tumor 327498-153-R-J2-PDC patient-derived uterine carcinosarcoma cell line growth inhibition [KRAS2]
Conditions: for viability, T/C: stronger effect = lower value
Source text: Multicellular complex tumor spheroid response to RAS pathway inhibitors in combination with a targeted agents in patient-derived cell lines with oncogenic KRAS variants from multiple cancer types
A high-throughput screen of multi-cell type tumor spheroids was designed to identify active combinations of targeted small molecules and KRAS pathway inhibitors. Complex spheroids include a stromal component modeled by human endothelial cells (HUVEC) and fibroblasts modeled by human mesenchymal stem cells (MSCs). The concentration ranges selected for each drug and investigational agent were based upon clinically achievable concentrations if the clinical Cmax of the agent was known.
Compounds. The drugs and investigational agents: BI-3406 (NSC825286), BAY-293 (NSC824723), batoprotafib (TNO155; NSC825523), sotorasib (AMG 510; NSC818433), MRTX1257 (NSC819558), elimusertib (BAY 1895344; NSC800525), molibresib (GSK525762; NSC774829), temuterkib (LY3214996; NSC803410), venetoclax (NSC766270), alisertib (NSC759677), olaparib (NSC753686), talazoparib (NSC767125), erdafitinib (NSC781556), ipatasertib (NSC767898), cabozantinib (NSC761068), nintedanib (NSC756659), abemaciclib (NSC768073), docetaxel (NSC628503), trametinib (NSC758246), and sapanisertib (NSC764658) were obtained from the National Cancer Institute (NCI) Developmental Therapeutics Program Chemical Repository. The FDA-approved anticancer drug set is available from the Developmental Therapeutics Program. […] The stock solutions were prepared in dimethyl sulfoxide (DMSO, Sigma-Aldrich, St. Louis, MO, cat. D2650) at 800-fold the tested concentration and stored at -70 degrees C prior to their use. All drugs and investigational agents were tested over a range starting from a high concentration at or near the clinical Cmax and decreasing in half-log increments. If the clinical Cmax for an agent had not been determined, the highest concentration tested was 10 microM.
Cell Culture. All cells were maintained in an incubator at 37 degrees C and 5% CO2 with 95% humidity. The PDC lines were cultured according to standard operating procedures established by the NCI PDMR (https://pdmr.cancer.gov/sops/default.htm). Briefly, all PDCs were thawed and cultured in Matrigel-coated flasks prepared with a working solution of 1X Ham's F-12 nutrient mix, without supplementation (Invitrogen, Waltham, MA, cat. 11765054), 100 U/mL penicillin-streptomycin (Invitrogen, cat. 15140122), and 2.5% Matrigel (Corning Inc., Corning, NY, cat. 354248) for the first three passages. All PDCs were cultured in complete DMEM/F-12 media containing advanced DMEM/F-12 (Invitrogen, cat. 12634028), 4.9% defined fetal bovine serum, heat inactivated (HyClone Laboratories Inc., Logan, UT, cat. SH30070.03HI), 389 ng/mL hydrocortisone (Sigma-Aldrich, cat. H4001), 9.7 ng/mL human EGF recombinant protein (Invitrogen, cat. PHG0313), 23.4 microg/mL adenine (Sigma-Aldrich, cat. A2786), 97.3 U/mL penicillin-streptomycin (Invitrogen, cat. 15140122), 1.9 mM L-glutamine (Invitrogen, cat. 25030081), and 9.7 microM Y-27632 dihydrochloride (Tocris Bioscience, Bristol, United Kingdom, cat. 1254). The PDCs were cultured in complete DMEM/F12 media without 9.7 microM Y-27632 dihydrochloride for at least two passages prior to the screen. The established cell line HOP-62 was cultured in RPMI 1640 medium, HEPES (Invitrogen, cat. 22400105) with 10% defined fetal bovine serum (HyClone Laboratories Inc., cat. SH30070.03) and 2 mM L-glutamine (Invitrogen, cat. 25030081). The pooled donor HUVEC were cultured in endothelial cell growth medium 2 (PromoCell, Heidelberg, Germany, cat. C-22011) and the hMSC were cultured in mesenchymal stem cell growth medium 2 (PromoCell, cat. C-28009). For all experiments, HUVEC and hMSC were used at passages </=5, while the malignant cell lines were used at passages </=15. […]

[1] = curve of first compound, second compound 0.1 µM
[2] = curve of first compound, second compound 0.316 µM
[3] = curve of first compound, second compound 1 µM
[4] = curve of first compound, second compound 3.16 µM
[5] = curve of first compound, second compound 10 µM
[6] = second compound 0.1 µM, first compound 0.0316 µM
[7] = second compound 0.1 µM, first compound 0.1 µM
[8] = second compound 0.1 µM, first compound 0.316 µM
[9] = second compound 0.1 µM, first compound 1 µM
[10] = second compound 0.1 µM, first compound 3.16 µM
[11] = second compound 0.1 µM, first compound 10 µM
[12] = second compound 0.316 µM, first compound 0.0316 µM
[13] = second compound 0.316 µM, first compound 0.1 µM
[14] = second compound 0.316 µM, first compound 0.316 µM
[15] = second compound 0.316 µM, first compound 1 µM
[16] = second compound 0.316 µM, first compound 3.16 µM
[17] = second compound 0.316 µM, first compound 10 µM
[18] = second compound 1 µM, first compound 0.0316 µM
[19] = second compound 1 µM, first compound 0.1 µM
[20] = second compound 1 µM, first compound 0.316 µM
[21] = second compound 1 µM, first compound 1 µM
[22] = second compound 1 µM, first compound 3.16 µM
[23] = second compound 1 µM, first compound 10 µM
[24] = second compound 3.16 µM, first compound 0.0316 µM
[25] = second compound 3.16 µM, first compound 0.1 µM
[26] = second compound 3.16 µM, first compound 0.316 µM
[27] = second compound 3.16 µM, first compound 1 µM
[28] = second compound 3.16 µM, first compound 3.16 µM
[29] = second compound 3.16 µM, first compound 10 µM
[30] = second compound 10 µM, first compound 0.0316 µM
[31] = second compound 10 µM, first compound 0.1 µM
[32] = second compound 10 µM, first compound 0.316 µM
[33] = second compound 10 µM, first compound 1 µM
[34] = second compound 10 µM, first compound 3.16 µM
[35] = second compound 10 µM, first compound 10 µM
[36] = second compound 0.1 µM, first compound 0.01 µM
[37] = second compound 0.316 µM, first compound 0.01 µM
[38] = second compound 1 µM, first compound 0.01 µM
[39] = second compound 3.16 µM, first compound 0.01 µM
[40] = second compound 10 µM, first compound 0.01 µM
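Note: spheroids exposed to agents for seven days before reading.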
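Throughout, for viability, T/C: 100% = DMSO vehicle wells so lower means fewer viable cells.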

Structure (SMILES) | IC50 [1] | IC50 [2] | IC50 [3] | IC50 [4] | IC50 [5] | viability, T/C [6] | viability, T/C [7] | viability, T/C [8] | viability, T/C [9] | viability, T/C [10] | viability, T/C [12] | viability, T/C [13] | viability, T/C [14] | viability, T/C [15] | viability, T/C [16] | viability, T/C [18] | viability, T/C [19] | viability, T/C [20] | viability, T/C [21] | viability, T/C [22] | further results
COC(=O)c1ccc2c(C(=Nc3ccc(N(C)C(=O)CN4CCN(C)CC4)cc3)c3ccccc3)c(O)[nH]c2c1 + CNCc1ccccc1-c1csc(C(C)Nc2nc(C)nc3cc(OC)c(OC)cc23)c1 | 0.519 µM | 0.308 µM | 0.153 µM | < 0.0316 µM | < 0.0316 µM | 73.5% | 69.9% | 58.6% | 38.7% | 10.9% | 62.9% | 61.4% | 48.8% | 22.6% | 0.98% | 60.9% | 53% | 41.5% | 18.7% | 0.06% | viability, T/C [11]: 8.59%; viability, T/C [17]: 1.62%; viability, T/C [23]: 0.11%; viability, T/C [24]: 0.1%; viability, T/C [25]: 0.13%; viability, T/C [26]: 0.08%; viability, T/C [27]: 0.15%; viability, T/C [28]: 0.04%; viability, T/C [29]: 0.11%; viability, T/C [30]: 0.43%; viability, T/C [31]: 0.37%; viability, T/C [32]: 0.36%; viability, T/C [33]: 0.1%; viability, T/C [34]: 1.07%; viability, T/C [35]: 0.16%
CC1COCCN1c1cc(-c2ccnn2C)c2ccnc(-c3ccn[nH]3)c2n1 (configuration not stated) + CNCc1ccccc1-c1csc(C(C)Nc2nc(C)nc3cc(OC)c(OC)cc23)c1 | 0.0235 µM | 0.0179 µM | 0.015 µM | < 0.01 µM | < 0.01 µM | 39.5% | 9.19% | 5.57% | 5.53% | 5.04% | 33.8% | 11.5% | 5.05% | 5.87% | 5.3% | 26.7% | 9.86% | 4.09% | 3.98% | 1.03% | viability, T/C [36]: 80%; viability, T/C [37]: 66.6%; viability, T/C [38]: 62.9%; viability, T/C [39]: 0.09%; viability, T/C [24]: 0.07%; viability, T/C [25]: 0.05%; viability, T/C [26]: 0.71%; viability, T/C [27]: 0.03%; viability, T/C [28]: 0.13%; viability, T/C [40]: 0.13%; viability, T/C [30]: 0.13%; viability, T/C [31]: 0.13%; viability, T/C [32]: 0.12%; viability, T/C [33]: 0.12%; viability, T/C [34]: 0.21%
CC(=O)OC12COC1CC(O)C1(C)C(=O)C(O)C3=C(C)C(OC(=O)C(O)C(NC(=O)OC(C)(C)C)c4ccccc4)CC(O)(C(OC(=O)c4ccccc4)C21)C3(C)C (configuration not stated) + C=CC(=O)N1CCN(c2nc(=O)n(-c3c(C)ccnc3C(C)C)c3nc(-c4c(O)cccc4F)c(F)cc23)C(C)C1 | < 0.01 µM | < 0.01 µM | < 0.01 µM | < 0.01 µM | < 0.01 µM | 6.6% | 5.43% | 6.55% | 9.48% | 11.1% | 6.11% | 5.72% | 7.34% | 8.77% | 13.1% | 5.71% | 10.5% | 8.73% | 8.75% | 10.7% | viability, T/C [36]: 8.43%; viability, T/C [37]: 7.73%; viability, T/C [38]: 9.81%; viability, T/C [39]: 9.54%; viability, T/C [24]: 7.63%; viability, T/C [25]: 7.71%; viability, T/C [26]: 10.1%; viability, T/C [27]: 11.2%; viability, T/C [28]: 12.2%; viability, T/C [40]: 11.1%; viability, T/C [30]: 9.72%; viability, T/C [31]: 12.5%; viability, T/C [32]: 13.3%; viability, T/C [33]: 12.3%; viability, T/C [34]: 12.8%
COc1cc2nccc(Oc3ccc(NC(=O)C4(C(=O)Nc5ccc(F)cc5)CC4)cc3)c2cc1OC + C=CC(=O)N1CCN(c2nc(=O)n(-c3c(C)ccnc3C(C)C)c3nc(-c4c(O)cccc4F)c(F)cc23)C(C)C1 | 1.35 µM | 1.15 µM | 1.07 µM | 1.03 µM | < 0.0316 µM | 55.8% | 63.5% | 60.1% | 59.6% | 22.6% | 56.8% | 59.5% | 59.9% | 54.5% | 16.5% | 49.1% | 52.4% | 53.7% | 54% | 16% | viability, T/C [11]: 1.82%; viability, T/C [17]: 1.34%; viability, T/C [23]: 1.1%; viability, T/C [24]: 51.4%; viability, T/C [25]: 49.7%; viability, T/C [26]: 54.8%; viability, T/C [27]: 50.9%; viability, T/C [28]: 15.2%; viability, T/C [29]: 0.82%; viability, T/C [30]: 36%; viability, T/C [31]: 37.5%; viability, T/C [32]: 39.9%; viability, T/C [33]: 34%; viability, T/C [34]: 8.7%; viability, T/C [35]: 0.79%
CC1OCC2(CCN(c3cnc(Sc4ccnc(N)c4Cl)c(N)n3)CC2)C1N (configuration not stated) | – | – | – | – | – | – | – | – | – | – | – | – | – | – | – | – | – | – | – | – | viability, T/C (compound 0.0316 µM): 87.3% and 88.9% and 86.3%; viability, T/C (compound 0.1 µM): 75.4% [middle of 19 runs]; viability, T/C (compound 0.316 µM): 59.2% [middle of 19 runs]; viability, T/C (compound 10 µM): 31.2% [middle of 19 runs]; IC50 (compound alone, run of 07/19/2021): 544 nM [middle of 5 runs]; IC50 (compound alone, run of 07/26/2021): 499 nM [middle of 6 runs]; IC50 (curve of compound): 1.05 µM [middle of 5 runs]
